The source of these data is patent US20260240832A1, “USE OF NITROXOLINE COMPOUND IN ENHANCING EFFECT OF ANTIBACTERIAL AGENT” (Jiangsu Yahong Meditech Co., Ltd., priority 2022, published 2026).

Like-named read-outs stand apart in the source and are kept apart here.

Common to all, as to format: cell-based
For experiment [1], the system named is drug-resistant Escherichia coli 1864. Put plainly: MIC of antibiotics against drug-resistant Escherichia coli II (resistance profile of the strain). The text has this:
(§1) 1 strain of drug-resistant Escherichia coli II, namely drug-resistant Escherichia coli 1864, is provided by the School of Pharmacy of Fudan University. This strain is resistant to fluoroquinolone antibiotics (such as levofloxacin), non-fluoroquinolone antibiotics (such as nalidixic acid, nemofloxacin), aminoglycoside antibiotics (such as gentamicin), glycopeptide antibiotics (such as vancomycin) and carbapenem antibiotics (such as meropenem).

For experiment [2], the system named is carbapenem-resistant Acinetobacter baumannii. Put plainly: Chessboard microbroth dilution MIC/FIC, compound A in combination with meropenem. To be noted: for MIC: Acinetobacter baumannii, read-out: Compound A MIC alone; for Compound A MIC in combination: with meropenem. The text has this:
This experiment is designed to determine the minimum inhibitory concentration (MIC) of compound A in combination with meropenem against carbapenem-resistant Acinetobacter baumannii and to calculate the fractional inhibitory concentration (FIC) index.
Test bacteria: 10 strains of carbapenem-resistant Acinetobacter baumannii are clinically isolated strains, and are provided by Shanghai Junji Medical Laboratory Co., Ltd.
(§2) According to the recommendation of the Clinical and Laboratory Standards Institute (CLSI), the microbroth dilution method designed by the chessboard method was used to determine the minimum inhibitory concentration (MIC) of compound A in combination with meropenem against the above strains, and the fractional inhibitory concentration (FIC) index was calculated.
Compound A was dissolved in dimethyl sulfoxide to obtain a stock solution I with a concentration of 51200 mg/L. The stock solution I was subjected to 1:1 gradient dilution with dimethyl sulfoxide to obtain a dilution solution with a concentration range of 51200 to 25 mg/L. The corresponding concentrations were added to sterile water for 100-fold dilution to obtain working solution I with a concentration range of 512 to 0.25 mg/L.
Meropenem was dissolved in sterile water to obtain a stock solution with a concentration of 5120 mg/L. The […] stock solution was subjected to 1:1 gradient dilution with sterile water to obtain a working solution II with a concentration range of 512 to 0.25 mg/L.
(§3) According to the method in Example 1, a drug sensitive plate was prepared with working solution I and working solution II, and the specific process will not be repeated here.
(§4) (2) The culture medium of the bacterial solution: Cation-Adjusted Mueller-Hinton Broth (CAMHB), a product of BBL, USA, batch number 9015952.
(§5) (3) Formulation method of bacterial solution: According to the direct colony suspension method, the test bacteria cultured overnight were prepared into a 0.5 McFarland turbidity tube using physiological saline. Then, the resulting solution was dilute 100 times with the above culture medium. 100 μL of the resulting bacterial solution was mixed well with the solution (100 μL) in each well of the drug sensitivity plate, and the final inoculation amount was 10^5 CFU/mL.
(§6) (4) Culture conditions: Culturing at 35±2° C. for 20 hours in air.
(1) The experimental results were determined according to the standard of CLSI 2020 M100 30th edition.
(§7) wherein: FIC≤0.5 indicates synergistic effect; 0.5<FIC≤1.0 indicates additive effect; 1<FIC≤2.0 indicates irrelevant effect; and FIC>2 indicates antagonistic effect.

Experiment [3] deals with drug-resistant Escherichia coli I (a strain resistant to carbapenem antibiotics). The description is as above. Particulars: for MIC: Escherichia coli, read-out: Compound A MIC alone; for Compound A MIC in combination: with meropenem.
Source text: (§8) This experiment is designed to determine the minimum inhibitory concentration (MIC) of compound A in combination with meropenem against drug-resistant Escherichia coli I (a strain resistant to carbapenem antibiotics) and drug-resistant Escherichia coli II (a strain resistant to fluoroquinolone antibiotics, non-fluoroquinolone antibiotics, aminoglycoside antibiotics, glycopeptide antibiotics and carbapenem antibiotics), and to calculate the fractional inhibitory concentration (FIC) index.
3 strains of drug-resistant Escherichia coli I, namely drug-resistant Escherichia coli 18-W09-093, drug-resistant Escherichia coli 18-W37-025, and drug-resistant Escherichia coli 18-W37-032, are provided by Shanghai Junji Medical Laboratory Co., Ltd. These 3 strains are all resistant to carbapenem antibiotics (e.g., meropenem).
as §2
(§9) Compound A was dissolved in dimethyl sulfoxide to obtain a stock solution I with a concentration of 1280 mg/L. The stock solution I was diluted to 512 mg/L with sterile water to obtain a gradient dilution first tube solution I. The gradient dilution first tube solution I was subjected to 1:1 gradient dilution with sterile water to obtain a working solution I with a gradient range of 512 to 0.25 mg/L.
(§10) Meropenem was dissolved in sterile water to obtain a stock solution II with a concentration of 5120 mg/L. The stock solution II was diluted to 1024 mg/L with sterile water to obtain a gradient dilution first tube solution II. The gradient dilution first tube solution II was subjected to 1:1 gradient dilution with sterile water to obtain a working solution II with a gradient range of 1024 to 0.5 mg/L.
as §3, §4, §5, §6
(§11) (1) The experimental results were determined according to the standard of CLSI 2019 M100 29th edition.
as §7

Experiment [4] has as its system drug-resistant Escherichia coli II (drug-resistant Escherichia coli 1864). The description is as above.
Source text: as §8, §1, §2, §9, §10, §3, §4, §5, §6, §11, §7

Where [5] appears, read: strain No. 1, compound A + meropenem.
Where [6] appears, read: strain No. 2, compound A + meropenem.
Setting [7] is: strain No. 3, compound A + meropenem.
The mark [8] stands for this setting: strain No. 4, compound A + meropenem.
[9] abbreviates: strain No. 5, compound A + meropenem.
The mark [10] stands for this setting: strain No. 6, compound A + meropenem.
Where [11] appears, read: strain No. 7, compound A + meropenem.
Setting [12] is: strain No. 8, compound A + meropenem.
[13] abbreviates: strain No. 9, compound A + meropenem.
Where [14] appears, read: strain No. 10, compound A + meropenem.
Where [15] appears, read: strain 18-W09-093, compound A + meropenem.
Setting [16] is: strain 18-W37-025, compound A + meropenem.
The mark [17] stands for this setting: strain 18-W37-032, compound A + meropenem.
Setting [18] is: strain 1864, compound A + meropenem.
[19] abbreviates: drug-resistant Escherichia coli 1864, read-out: MIC.

For `CCn1cc(C(=O)O)c(=O)c2ccc(C)nc21` [Nalidixic acid], the minimum inhibitory concentration (MIC) in experiment [1] (Escherichia coli) was > 64 µg/mL.
Consider `O=[N+]([O-])c1cc(Cl)c2cccnc2c1O` [Compound A, 5-chloro-7-nitro-8-hydroxyquinoline], for which the MIC in experiment [2] (strain No. 1) stood at 32 µg/mL; in experiment [2] (strain No. 2) it was 16 µg/mL; in experiment [2] (strain No. 3), 16 µg/mL; in experiment [2] (strain No. 4), 16 µg/mL; in experiment [2] (strain No. 5) it was 16 µg/mL; in experiment [2] (strain No. 6), 16 µg/mL. For the same compound, the MIC in experiment [2] (strain No. 7) worked out at 16 µg/mL; in experiment [2] (strain No. 8), 8 µg/mL; in experiment [2] (strain No. 9), 8 µg/mL; in experiment [2] (strain No. 10), 16 µg/mL; in experiment [3] (strain 18-W09-093), 32 µg/mL; in experiment [3] (strain 18-W37-025) it was 32 µg/mL. Besides, the minimum inhibitory concentration (MIC) in experiment [3] (strain 18-W37-032) amounted to 32 µg/mL; in experiment [4] (Escherichia coli, strain 1864, read-out: Compound A MIC alone) it was 4 µg/mL. Also, the “change of the MIC of meropenem by the combination” value in experiment [2] (compound A + meropenem) is reported as “significantly reduce”; in experiment [3] (compound A + meropenem, drug-resistant Escherichia coli I and II) it was “significantly reduce”. For the same compound, in experiment [2] (compound A + meropenem), the “effect of the combination (summary of Table 5)” value was “synergistic effect (FIC≤0.5 indicates synergistic effect)”. Also, the FIC index in experiment [2] (setting [5]) amounted to 0.127; in experiment [2] (setting [6]), 0.129; in experiment [2] (setting [7]), 0.129; in experiment [2] (setting [8]), 0.129; in experiment [2] (setting [9]), 0.129; in experiment [2] (setting [10]) it was 0.129. For the same compound, the FIC index in experiment [2] (setting [11]) was determined as 0.254; in experiment [2] (setting [12]), 0.133; in experiment [2] (setting [13]), 0.133; in experiment [2] (setting [14]) it was 0.129; in experiment [3] (setting [15]), 0.258; in experiment [3] (setting [16]) it was 0.258. Also, the FIC index in experiment [3] (setting [17]) came to 0.281; in experiment [4] (setting [18]) it was 0.14. The Results entry in experiment [2] (setting [5]), in experiment [2] (setting [6]), in experiment [2] (setting [7]), in experiment [2] (setting [8]), in experiment [2] (setting [9]) and in experiment [2] (setting [10]) was “Synergistic” throughout. In addition, the Results result in experiment [2] (setting [11]), in experiment [2] (setting [12]), in experiment [2] (setting [13]), in experiment [2] (setting [14]), in experiment [3] (setting [15]) and in experiment [3] (setting [16]) was “Synergistic” throughout. The Results result in experiment [3] (setting [17]) and in experiment [4] (setting [18]) was “Synergistic” each time. In addition, the “Compound A MIC in combination” value in experiment [2] (strain No. 1), in experiment [2] (strain No. 2), in experiment [2] (strain No. 3), in experiment [2] (strain No. 4), in experiment [2] (strain No. 5) and in experiment [2] (strain No. 6) was 0.06 µg/mL each time. Also, the “Compound A MIC in combination” value in experiment [2] (strain No. 7) worked out at 0.06 µg/mL; in experiment [2] (strain No. 8) it was 0.06 µg/mL; in experiment [2] (strain No. 9), 0.06 µg/mL; in experiment [2] (strain No. 10), 0.06 µg/mL; in experiment [3] (strain 18-W09-093), 8 µg/mL; in experiment [3] (strain 18-W37-025), 8 µg/mL. For the same compound, the “Compound A MIC in combination” value in experiment [3] (strain 18-W37-032) came out at 8 µg/mL; in experiment [4] (strain 1864, with meropenem) it was 0.5 µg/mL. The “effect of the combination (summary of Table 4)” value in experiment [3] (compound A + meropenem, drug-resistant Escherichia coli I) is recorded as “synergistic effect (FIC≤0.5 indicates synergistic effect)”; in experiment [4] (compound A + meropenem, drug-resistant Escherichia coli II), “synergistic effect (FIC≤0.5 indicates synergistic effect)”.
Consider Gentamycin, for which the minimum inhibitory concentration (MIC) in experiment [1] (drug-resistant Escherichia coli 1864) amounted to 64 µg/mL.
On to `C[C@H]1COc2c(N3CCN(C)CC3)c(F)cc3c(=O)c(C(=O)O)cn1c23` [Levofloxacin], for which the MIC in experiment [1] (setting [19]) came to 32 µg/mL.
In the case of `CN[C@H](CC(C)C)C(=O)N[C@H]1C(=O)N[C@@H](CC(N)=O)C(=O)N[C@H]2C(=O)N[C@H]3C(=O)N[C@H](C(=O)N[C@H](C(=O)O)c4cc(O)cc(O)c4-c4cc3ccc4O)[C@H](O)c3ccc(c(Cl)c3)Oc3cc2cc(c3O[C@@H]2O[C@H](CO)[C@@H](O)[C@H](O)[C@H]2O[C@H]2C[C@](C)(N)[C@H](O)[C@H](C)O2)Oc2ccc(cc2Cl)[C@H]1O` [Vancomycin], in experiment [1] (Escherichia coli), the minimal inhibitory concentration (MIC) is > 64 µg/mL.
Take `COc1c(N2C[C@@H](C)C[C@H](N)C2)ccc2c(=O)c(C(=O)O)cn(C3CC3)c12` [Nemofloxacin]: in experiment [1] (setting [19]), the MIC is > 64 µg/mL.
